Columns and labels:
[1] = system: Mycobacterium tuberculosis; set-up: species or system C57BL6 mice; conditions: mouse, in vivo
[2] = system: Mycobacterium tuberculosis
tuberculosis = conditions: intranasal; Antonelli et al., J. Clin. Investigation 2010; cited from earlier work

Compound | colony forming units (CFU) in lungs [1] | mice that survived past day 53 post-infection ([2]; M. tuberculosis-infected B6 mice treated with poly-ICLC alone, five mice) | mean weight as % of starting weight ([2]; M. tuberculosis-infected B6 mice, after 31 days, treated with intranasal poly-ICLC twice weekly) | effect on tuberculosis in mice (tuberculosis)
CC(c1cc2ccccc2s1)N(O)C(N)=O (centres unmarked) [zileuton] | approximately 7.6 log^10 CFU |  |  | 
poly-ICLC | approximately 8.9 log^10 CFU | None | approximately 74% | exacerbate tuberculosis
